# Test results taken from patent publication US5028733A, “Prostaglandins” (National Research Development Corporation, priority 1980, dated 1991).
# Tests used:
# Assay type in all cases: cell-based
# rabbit aorta [1] = assay: Rabbit aorta strip, antagonism of contraction by 11,9-(epoxymethano) PGH2 (affinity constant KB); conditions: for Kb: vs 11,9-(epoxymethano) PGH2, 37° C, compound added 30 min before, Gaddum-Schild, read-out: Affinity Constants, Rabbit Aorta (KB) (converted)
# Procedure: Spiral strips of thoracic aorta are suspended in Kreb's-Henseleit solution and aerated with 95% O2 /5% CO2 at 37° C. Tension changes are recorded with a Glass FTO3 force transducer. Initially, cumulative dose response curves to 11,9-(epoxymethano) PGH2 (2×10^-9, 1×10^-8, 5×10^-8 and 2.5×10^-7 M) are obtained. In a second experiment the individual compounds are added 30 minutes previous to the addition of the series of agonist doses. In the case of each compound, the affinity constant, KB, for the compound is calculated according to the Gaddum - Schild Equation (based on Law of Mass Action).
# (§1) [B]=molar concentration of compound
# human platelets = biological target: T1, human platelets (Homo sapiens, UniProt P21731); assay: Human platelet system, antagonism of aggregation by 11,9-(epoxymethano) PGH2 (affinity constant KB); conditions: for Kb: vs 11,9-(epoxymethano) PGH2, compound added 5 min before, Gaddum-Schild, read-out: Affinity Constants, Human Platelets (KB) (converted)
# T1 construct: Platelet-rich plasma is obtained from fresh, citrated human blood; endogenous in cells; host or cells: human platelets in platelet-rich plasma
# T1 sequence (P21731 1-343): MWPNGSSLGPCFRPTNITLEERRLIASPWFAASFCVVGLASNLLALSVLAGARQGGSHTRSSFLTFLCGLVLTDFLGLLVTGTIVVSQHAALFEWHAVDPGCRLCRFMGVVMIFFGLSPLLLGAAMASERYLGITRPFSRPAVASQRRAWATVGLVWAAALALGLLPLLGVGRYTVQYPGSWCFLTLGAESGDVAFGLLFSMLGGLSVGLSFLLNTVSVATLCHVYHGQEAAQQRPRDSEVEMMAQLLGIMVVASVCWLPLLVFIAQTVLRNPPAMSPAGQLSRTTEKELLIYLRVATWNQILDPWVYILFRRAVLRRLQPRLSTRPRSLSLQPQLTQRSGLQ
# Procedure: Platelet-rich plasma is obtained from fresh, citrated human blood. Addition of the 11,9-(epoxymethano) PGH2 (1×10^-7 to 5×10^-7 M) causes immediate aggregation recorded as an increase in light transmission (600 nm). In a second experiment the individual compounds are added five minutes previous to the addition of the PGH2 analogue. The dose of the PGH2 analogue added is then increased to a level which gives a similar response to that obtained in the absence of antagonist. The affinity constant, KB, for the compound is calculated according to the Gaddum - Schild Equation (based on Law of Mass Action).
# as §1
# platelet = assay: Block of the aggregatory action of arachidonic acid on platelets; conditions: in words
# rabbit aorta [2] = assay: Block of the contractile action of noradrenaline in the rabbit aorta strip test; conditions: in words
SMILES,Kb (rabbit aorta [1]) [nM],Kb (human platelets) [nM],also measured
O=C(O)CCC/C=C\C[C@H]1[C@H]2CC[C@H](C2)[C@@H]1C=NOCCOC(c1ccccc1)c1ccccc1 (relative stereo),10000,4350,
O=C(O)CCC/C=C\C[C@H]1[C@H]2CC[C@H](C2)[C@@H]1C=NNc1nc2ccccc2o1 (relative stereo),500,5560,
O=C(O)CCC/C=C\C[C@H]1C2CCC(CC2)[C@@H]1C=NNC(=O)Nc1ccccc1 (relative stereo),833,,
Cn1c(=NN=C[C@H]2[C@@H]3CC[C@@H](C3)[C@@H]2C/C=C\CCCC(=O)O)sc2ccccc21 (relative stereo),1520,3450,
CC(=NNC(=S)Nc1cccnc1)[C@H]1C2CCC(CC2)[C@@H]1C/C=C\CCCC(=O)O (relative stereo),256,667,
CC(=NNC(=S)Nc1cccc(F)c1)[C@H]1[C@@H]2CC[C@@H](C2)[C@@H]1C/C=C\CCCC(=O)O (relative stereo),70.4,45.5,
O=C(O)CCC/C=C\C[C@H]1[C@H]2CC[C@H](C2)[C@@H]1C=NNC(=O)CN(Cc1ccccc1)Cc1ccccc1 (relative stereo),833,,
CC1(C)[C@H]2C[C@H](C=NNC(=S)Nc3ccccc3)[C@@H](C/C=C\CCCC(=O)O)[C@@H]1C2,1670,2860,
Cc1ccc(S(=O)(=O)NN=C[C@H]2[C@@H]3CC[C@@H](C3)[C@@H]2C/C=C\CCCC(=O)O)cc1 (relative stereo),345,667,
CC(=NNC(=O)Nc1ccccc1)[C@H]1C[C@H]2C[C@@H]([C@@H]1C/C=C\CCCC(=O)O)C2(C)C,357,909,
O=C(O)CCC/C=C\C[C@@H]1CC=CC[C@H]1C=NOCc1ccc(F)cc1 (relative stereo),385,8330,
"CCC(=NNC(=S)Nc1ccccc1)[C@H]1[C@@H]2CC[C@@H](C2)[C@@H]1C/C=C\CCCC(=O)O (relative stereo) [Example 3, 5-endo-(6'-Carboxyhex-2'Z-enyl)-6-exo-{1'-[N-(phenylthiocarbamoyl)-hydrazono]-propyl}-bicyclo [2,2,1] heptane]",,256,
COc1ccc(NC(=S)NN=C(C)[C@H]2[C@@H]3CC[C@@H](C3)[C@@H]2C/C=C\CCCC(=O)O)cc1 (relative stereo),213,102,
"CC1(C)[C@H]2C[C@H](C/C=C\CCCC(=O)O)C(C=NNC(=O)Nc3ccccc3)[C@@H]1C2 (single isomer, unassigned)",333,2000,
COc1ccc(NC(=O)NN=C(C)[C@H]2C3CCC(CC3)[C@@H]2C/C=C\CCCC(=O)O)cc1 (relative stereo),55.6,55.6,
CC(=NNC(=S)Nc1ccccc1)[C@H]1C2CCC(CC2)[C@@H]1C/C=C\CCCC(=O)O (relative stereo),83.3,47.6,
O=C(O)CCCC=CCC1C(O)CCC1C=NOCc1ccc(F)cc1 (centres unmarked),2500,,
O=C(O)CCC/C=C\C[C@H]1[C@H]2CC[C@H](C2)[C@@H]1C=NNC(=S)Nc1ccccc1 (relative stereo),526,263,
O=C(O)CCC/C=C\C[C@H]1[C@H]2CC[C@H](C2)[C@@H]1C=NN=C(c1ccccc1)c1ccccc1 (relative stereo),667,,
"O=C(O)CCC/C=C\C[C@H]1[C@H]2CC[C@H](C2)[C@@H]1C=NNC(=S)NCc1ccccc1 (relative stereo) [Example 1, 5-endo-(6'-Carboxyhex-2'Z-enyl)-6-exo-[N-(benzylthiocarbamoyl)-hydrazonomethyl]-bicyclo [2,2,1] heptane]",,,antagonist in the rabbit aorta strip test (rabbit aorta [1]; in words): pure antagonists in the rabbit aorta strip test; antagonist in the platelet test (human platelets; in words): antagonists in the platelet test; aggregatory action of arachidonic acid (platelet): block the aggregatory action of arachidonic acid; contractile action of noradrenaline (α-adrenoceptors) (rabbit aorta [2]): do not block the contractile action of noradrenaline
CC(=NNC(=S)Nc1cccc(C(F)(F)F)c1)[C@H]1[C@@H]2CC[C@@H](C2)[C@@H]1C/C=C\CCCC(=O)O (relative stereo),118,189,
O=C(O)CCC/C=C\C[C@@H]1CC=CC[C@H]1C=NNC(=S)Nc1ccccc1 (relative stereo),1100,500,
COc1cccc(NC(=S)NN=C(C)[C@H]2[C@@H]3CC[C@@H](C3)[C@@H]2C/C=C\CCCC(=O)O)c1 (relative stereo),95.2,118,
CC(=NNC(=S)Nc1ccccc1)[C@H]1[C@@H]2CC[C@@H](C2)[C@@H]1C/C=C\CCCC(=O)O (relative stereo) [drawing 42],90.9,50,
O=C(O)CCC/C=C\C[C@H]1[C@H]2CC[C@H](C2)[C@@H]1C=NNC(=S)NCc1ccccc1 (relative stereo) [drawing 41],526,1280,
